Experimental data: the NIST ThermoML archive (doi:10.1016/j.fluid.2011.09.020)

Conditions: Liquid, Ebulliometric method (Recirculating still)

O=C(O)C(Cl)Cl [2,2-dichloroacetic acid]
Conditions	vapor or sublimation pressure [kPa]
384.3 K	5
388.3 K	6
391.8 K	7
394.8 K	8
397.6 K	9
400.2 K	10
402.4 K	11
404.3 K	12
406.4 K	13
408.3 K	14
410.1 K	15
414.1 K	17.5
417.5 K	20
423.5 K	25
428.6 K	30
437 K	40

O=C(O)CCl [chloroethanoic acid]
Conditions	vapor or sublimation pressure [kPa]
380.7 K	5
384.7 K	6
389.5 K	7.5
391 K	8
393.8 K	9
396.3 K	10
398.7 K	11
400.7 K	12
402.7 K	13
404.6 K	14
406.3 K	15
410.2 K	17.5
413.7 K	20
419.5 K	25
424.5 K	30
432.6 K	40
